# Test results reported in patent US10662159B2, “ABHD6 and dual ABHD6/MGL inhibitors and their uses” (MAKScientific, LLC, priority 2017, dated 2020).
# What was measured:
# Format in all cases: biochemical
# [1] = target: Rat ΔTM FAAH (Rattus norvegicus (Rat), UniProt P97612); assay: Fluorescent assay for rat ΔTM FAAH (AAMCA substrate); conditions: ΔTM rFAAH, AAMCA 20 μM; read-out: rFAAH Inhibition IC50
# Protocol: (§1) Certain compounds were tested for their ABHD6 and dual ABHD6/MGL inhibitory activity, which is expressed as % of inhibition or IC50 values in Table 1. The percentage of inhibition describes the percentage by which the inhibitor reduces the velocity/rate of 2-AG hydrolysis by ABHD6, and MGL or AEA hydrolysis by FAAH. The IC50 is the concentration of the inhibitor, which results in 50% inhibition of the velocity/rate of 2-AG hydrolysis by ABHD6 or MGL. The IC50 is the concentration of the inhibitor, which results in 50% inhibition of the velocity/rate of AEA hydrolysis by FAAH. The lower the IC50 values, the higher its inhibitory activity. A detailed description of the methods used to test inhibitory activity of compounds is given below.
# Example 79. Preparation of Transmembrane Domain-Deleted Rat FAAH (ΔTM rFAAH)
# Rat ΔTM FAAH was expressed in E. coli cells and purified using the procedure disclosed by Patricelli et al. Biochemistry (1998) 37: 15177-15187.
# Example 81. Fluorescent Assay Protocol for Rat ΔTM FAAH
# (§2) The fluorescence reading at the 3 hour time point (linear enzyme kinetics) was used to calculate percent inhibition based on control assays without inhibitor present. All FAAH assays were performed in triplicate for each inhibitor concentration, and IC50 values determined using Prizm software (GraphPad Software, Inc.).
# [2] = target: hABHD6 (Homo sapiens (Human), UniProt Q9BV23); assay: Fluorescent assay for hABHD6 (AHMMCE substrate hydrolysis); conditions: membrane fraction containing full-length hABHD6, 20 μM AHMMCE; read-out: ABHD6 Inhibition IC50
# hABHD6, sequence (Q9BV23 whole entry): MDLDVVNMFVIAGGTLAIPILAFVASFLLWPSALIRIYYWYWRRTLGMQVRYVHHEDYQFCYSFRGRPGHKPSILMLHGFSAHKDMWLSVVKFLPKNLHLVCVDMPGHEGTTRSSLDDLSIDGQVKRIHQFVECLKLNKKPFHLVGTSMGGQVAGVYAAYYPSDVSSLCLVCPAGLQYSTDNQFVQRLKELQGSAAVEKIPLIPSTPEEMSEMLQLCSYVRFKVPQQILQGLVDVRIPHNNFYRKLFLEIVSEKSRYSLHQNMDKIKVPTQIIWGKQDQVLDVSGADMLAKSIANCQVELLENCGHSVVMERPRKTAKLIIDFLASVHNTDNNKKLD
# Protocol: (§3) Certain compounds were tested for their ABHD6 and dual ABHD6/MGL inhibitory activity, which is expressed as % of inhibition or IC50 values in Table 1. The percentage of inhibition describes the percentage by which the inhibitor reduces the velocity/rate of 2-AG hydrolysis by ABHD6, and MGL or AEA hydrolysis by FAAH. […] The lower the IC50 values, the higher its inhibitory activity. A detailed description of the methods used to test inhibitory activity of compounds is given below.
# Fluorescent Assays Protocol for hABHD6
# Initial Fluorescent Inhibition Assay (3-Point)—
# In each well of a 96-well plate 8 μL of membrane fraction containing full-length hABHD6 (1 μg total protein) was mixed with 168 μL of assay buffer (50 mM Tris-HCl, pH 7.6), and 20 μL of diluted compound (diluted in a dilution buffer consisting of 50% DMSO/50% assay buffer v/v). Each plate was incubated at RT for 15 minutes before adding 4 μL of 1 mM AHMMCE substrate (final concentration of 20 μM AHMMCE and final volume of 200 μL). The reaction was allowed to proceed for 1 hr at RT before the fluorescence was read at λex 360 nm and λem 460 nm and the inhibition calculated. Each experiment can test 8 compounds at three concentrations (usually 10 μM, 1 μM, and 100 nM).
# IC50 Determination Assay (8-Point)—
# A more detailed assay with an extended range tests compounds over 8 concentrations depending on the pre-determined approximate IC50 value from the initial screen. […] The assay was conducted in 96 well plate with each well containing the same reaction mixture detailed above in the 3-point screen. The relative fluorescence is quantified into coumarin produced by using a standard curve of HMMC in triplicate on each plate. Results are normalized to the negative control wells and the IC50 is determined using a non-linear regression curve fit in Prism, version 5 (GraphPad, San Diego, Calif.).
# [3] = target: hMGL (Homo sapiens (Human), UniProt Q99685); assay: Fluorescent assay for hMGL (AHMMCE substrate hydrolysis); conditions: E. coli lysate containing hMGL, read-out: hMGL Inhibition IC50
# hMGL, sequence (Q99685 whole entry): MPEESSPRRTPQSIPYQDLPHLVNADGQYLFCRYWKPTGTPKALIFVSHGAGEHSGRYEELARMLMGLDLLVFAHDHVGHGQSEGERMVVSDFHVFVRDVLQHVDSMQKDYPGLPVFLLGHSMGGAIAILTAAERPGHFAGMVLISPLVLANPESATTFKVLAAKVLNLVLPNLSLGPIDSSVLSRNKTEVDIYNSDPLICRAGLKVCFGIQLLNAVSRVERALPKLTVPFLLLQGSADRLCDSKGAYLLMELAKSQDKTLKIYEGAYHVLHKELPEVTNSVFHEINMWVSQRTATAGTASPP
# Protocol: as §3
# Preparation of Human MAGL (hMAGL)
# Fluorescent Assay Protocol for hMGL
# This medium throughput assay involved a 96-well plate format in which hMGL activity was monitored by the hydrolysis of the substrate […] (AHMMCE) to form the fluorescent product, coumarin. […] Upon the addition of AHMMCE, the reaction was incubated at 25° C. for 120 min; fluorescence readings were taken every 15 min at 360 nm/460 nm (λexcitation/λemission) using a Synergy HT Plate Reader (Bio-Tek, Winooski, Vt.). […] External standards were used to convert relative fluorescence units to the amount of 4-methylcoumarin formed. All MGL assays were performed in triplicate for each inhibitor concentration, and IC50 values were calculated using Prizm software (GraphPad Software, Inc., San Diego, Calif.).
# [4] = target: hFAAH (Homo sapiens (Human), UniProt O00519); assay: Fluorescent assay for hFAAH; conditions: MBP ΔTM hFAAH, procedure as for rFAAH; read-out: hFAAH Inhibition IC50
# hFAAH, sequence (O00519 30-579): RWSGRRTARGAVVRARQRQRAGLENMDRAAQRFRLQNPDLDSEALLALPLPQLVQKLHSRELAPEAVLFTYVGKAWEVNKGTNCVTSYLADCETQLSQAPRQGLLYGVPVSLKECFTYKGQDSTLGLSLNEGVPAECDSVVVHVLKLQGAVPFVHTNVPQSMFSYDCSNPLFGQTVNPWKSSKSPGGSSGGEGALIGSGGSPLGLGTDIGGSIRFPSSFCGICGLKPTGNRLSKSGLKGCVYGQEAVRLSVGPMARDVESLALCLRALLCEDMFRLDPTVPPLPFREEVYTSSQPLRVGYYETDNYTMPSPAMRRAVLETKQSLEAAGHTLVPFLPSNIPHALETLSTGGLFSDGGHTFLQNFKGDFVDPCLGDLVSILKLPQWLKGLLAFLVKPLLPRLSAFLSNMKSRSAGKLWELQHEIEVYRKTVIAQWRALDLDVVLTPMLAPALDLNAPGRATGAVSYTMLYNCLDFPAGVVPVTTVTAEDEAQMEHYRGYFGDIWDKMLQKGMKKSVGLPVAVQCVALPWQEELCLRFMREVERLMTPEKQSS
# Protocol: as §1
# Example 80. Preparation of Human FAAH in Fusion with N-Terminal Maltose Binding Tag (MBP ΔTM hFAAH)
# Human FAAH without putative transmembrane domain following maltose binding protein was expressed in E. coli cells using pMALcE4 vector Alapafuja et al J. Med. Chem. (2012) 55: 10074-89.
# as §2
# Example 82. Fluorescent Assay Protocol for hFAAH
# Procedure was followed as described for rFAAH.
# Rat ΔTM FAAH, sequence (P97612 30-579): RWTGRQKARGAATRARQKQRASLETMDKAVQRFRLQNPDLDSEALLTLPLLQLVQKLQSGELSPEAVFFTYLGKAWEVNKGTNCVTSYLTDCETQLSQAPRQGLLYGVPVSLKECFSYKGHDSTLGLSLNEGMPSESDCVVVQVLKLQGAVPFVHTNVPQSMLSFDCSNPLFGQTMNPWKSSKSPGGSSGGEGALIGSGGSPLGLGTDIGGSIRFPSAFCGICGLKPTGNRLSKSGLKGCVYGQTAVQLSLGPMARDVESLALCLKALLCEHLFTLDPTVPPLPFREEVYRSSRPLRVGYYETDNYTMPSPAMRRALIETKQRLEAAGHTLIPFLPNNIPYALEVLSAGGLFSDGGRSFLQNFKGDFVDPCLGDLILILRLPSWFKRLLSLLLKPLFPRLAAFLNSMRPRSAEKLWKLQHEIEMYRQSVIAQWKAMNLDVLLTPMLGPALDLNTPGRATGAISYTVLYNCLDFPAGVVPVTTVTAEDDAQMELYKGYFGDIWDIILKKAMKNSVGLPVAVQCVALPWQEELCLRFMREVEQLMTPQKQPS
IC50 [1],IC50 [2],IC50 [3],IC50 [4],SMILES
> 1000 nM,> 1000 nM,> 1000 nM,> 1000 nM,"O=C(OC(C(F)(F)F)C(F)(F)F)N1CCc2cccc(-c3ccccc3)c2C1 [Example 27, 1,1,1,3,3,3-Hexafluoropropan-2-yl 8-phenyl-3,4-dihydroisoquinoline-2(1H)-carboxylate]"
> 1000 nM,10 to 100 nM,10 to 100 nM,> 1000 nM,"O=C(OC(C(F)(F)F)C(F)(F)F)N1Cc2ccc(OCC(F)F)cc2C1 [Example 45, 1,1,1,3,3,3-Hexafluoropropan-2-yl 5-(2,2-difluoroethoxy)isoindoline-2-carboxylate]"
> 1000 nM,10 to 100 nM,10 to 100 nM,> 1000 nM,"O=C(OC(C(F)(F)F)C(F)(F)F)N1CC2(CC(Oc3cccc(C(F)(F)F)c3)C2)C1 [Example 52, 1,1,1,3,3,3-Hexafluoropropan-2-yl 6-(3-(trifluoromethyl)phenoxy)-2-azaspiro [3.3]heptane-2-carboxylate]"
> 1000 nM,10 to 100 nM,10 to 100 nM,> 1000 nM,"O=C(OC(C(F)(F)F)C(F)(F)F)N1CC2(CC(Oc3cccc(F)c3)C2)C1 [Example 53, 1,1,1,3,3,3-Hexafluoropropan-2-yl-6-(3-fluorophenoxy)-2-azaspiro[3.3]heptane-2-carboxylate]"
> 1000 nM,10 to 100 nM,> 1000 nM,> 1000 nM,"O=C(OC(C(F)(F)F)C(F)(F)F)N1CC2(CC(Oc3cncc(F)c3)C2)C1 [Example 60, 1,1,1,3,3,3-Hexafluoropropan-2-yl 6-((5-fluoropyridin-3-yl)oxy)-2-azaspiro[3.3]heptane-2-carboxylate]"
> 1000 nM,10 to 100 nM,> 1000 nM,> 1000 nM,"CC1(C)C2C(=O)N(OC(=O)N3CC4(CC(Oc5cccc(C(F)(F)F)c5)C4)C3)C(=O)C21 (stereo not drawn) [Example 63, 6,6-Dimethyl-2,4-dioxo-3-azabicyclo[3.1.0]hexan-3-yl 6-(3-(trifluoromethyl)phenoxy)-2-azaspiro[3.3]heptane-2-carboxylate]"
> 1000 nM,10 to 100 nM,> 1000 nM,> 1000 nM,"CC1(C)C2C(=O)N(OC(=O)N3CC4(CCC(Oc5cncc(F)c5)C4)C3)C(=O)C21 (stereo not drawn) [Example 64, 6,6-Dimethyl-2,4-dioxo-3-azabicyclo[3.1.0]hexan-3-yl 6-((5-fluoropyridin-3-yl)oxy)-2-azaspiro[3.4]octane-2-carboxylate]"
10 to 100 nM,10 to 100 nM,10 to 100 nM,> 1000 nM,"O=C(OC(C(F)(F)F)C(F)(F)F)N1CC[C@]2(C1)C[C@@H](OC(c1ccc(F)cc1)c1ccc(F)cc1)C2 [Example 67, 1,1,1,3,3,3-Hexafluoropropan-2-yl (2r,4s)-2-(bis(4-fluorophenyl)methoxy)-6-azaspiro[3.4]octane-6-carboxylate]"
10 to 100 nM,> 1000 nM,10 to 100 nM,> 1000 nM,"O=C(OC(C(F)(F)F)C(F)(F)F)N1CC[C@]2(C1)C[C@H](OC(c1ccc(F)cc1)c1ccc(F)cc1)C2 [Example 68, 1,1,1,3,3,3-Hexafluoropropan-2-yl (2s,4r)-2-(bis(4-fluorophenyl)methoxy)-6-azaspiro[3.4]octane-6-carboxylate]"
